US20170042152A1, “SAFENED HERBICIDAL COMPOSITIONS COMPRISING PYRIDINE CARBOXYLIC ACIDS” (priority 2015, published 2017)

What was measured:
Details in all cases: herbicide 0 g ae/ha, 20-22 d
spring wheat (TRZAS) = assay: Greenhouse postemergence safening trial, crop phytotoxicity; type: in vivo, Triticum aestivum
Description: (§1) Seeds of the desired test plant species were planted in Sun Gro MetroMix® 306 planting mixture, which typically has a pH of 6.0 to 6.8 and an organic matter content of about 30 percent, in plastic pots with a surface area of 103.2 square centimeters (cm^2). When required to ensure good germination and healthy plants, a fungicide treatment and/or other chemical or physical treatment was applied. The plants were grown for 7-36 days (d) in a greenhouse with an approximate 14-hour (h) photoperiod which was maintained at about 18° C. during the day and 17° C. during the night. Nutrients and water were added on a regular basis and supplemental lighting was provided with overhead metal halide 1000-Watt lamps as necessary. The plants were employed for testing when they reached the second or third true leaf stage.
(§2) Weighed amounts of technical material were dissolved in a volume of 97:3 volume per volume (v/v) acetone/dimethyl sulfoxide (DMSO) to stock solutions. […] Compound requirements are based upon a 12 milliliter (mL) application volume at a rate of 187 liters per hectare (L/ha). Stock solutions of the safeners were prepared following the same procedure. Spray solutions of the safeners and experimental compound mixtures were prepared by adding the stock solutions to the appropriate amount of dilution solution to form a 12 mL spray solution in two-way combinations. Formulated compounds were applied to the plant material with an overhead Mandel track sprayer equipped with 8002E nozzles calibrated to deliver 187 L/ha over an application area of 0.503 square meters (m^2) at a spray height of 18 inches (43 centimeters (cm)) above average plant canopy. Control plants were sprayed in the same manner with the solvent blank.
(§3) The treated plants and control plants were placed in a greenhouse as described above and watered by sub-irrigation to prevent wash-off of the test compounds. After 20-22 d, the condition of the test plants as compared with that of the control plants was determined visually and scored on a scale of 0 to 100 percent where 0 corresponds to no injury and 100 corresponds to complete kill. Colby's equation was used to determine the herbicidal effects expected from the mixtures.

winter wheat (TRZAW) = assay: as above; type: in vivo, Triticum aestivum
Description: as §1, §2, §3

spring barley (HORVS) = assay: as above; type: in vivo, Hordeum vulgare
Description: as §1, §2, §3

wild buckwheat (POLCO) = assay: Greenhouse postemergence trial, weed efficacy; type: in vivo, Polygonum convulvus
Description: as §1, §2, §3

kochia (KCHSC) = assay: Greenhouse postemergence trial, weed efficacy; type: in vivo, Kochia scoparia
Description: as §1, §2, §3

Russian thistle (SASKR) = assay: Greenhouse postemergence trial, weed efficacy; type: in vivo, Salsola iberica
Description: as §1, §2, §3

wild pansy (VIOTR) = assay: Greenhouse postemergence trial, weed efficacy; type: in vivo, Viola tricolor
Description: as §1, §2, §3

[1] = tested on: bird's-eye speedwell (VERPE); assay: Greenhouse postemergence trial, weed efficacy; type: in vivo, Veronica persica
Description: as §1, §2, §3

wild mustard (SINAR) = assay: Greenhouse postemergence trial, weed efficacy; type: in vivo, Sinapis arvensis
Description: as §1, §2, §3

wild chamomile (MATCH) = assay: Greenhouse postemergence trial, weed efficacy; type: in vivo, Matricaria chamomilla
Description: as §1
as §2, with “Control plants were sprayed in the same manner with the solvent blank.” left out
as §3, with “Colby's equation was used to determine the herbicidal effects expected from the mixtures.” left out

shepherd's purse (CAPBP) = assay: Greenhouse postemergence trial, weed efficacy; type: in vivo, Capsella bura-pastoris
Description: as §1, §2, §3

lambsquarters (CHEAL) = assay: Greenhouse postemergence trial, weed efficacy; type: in vivo, Chenopodium album
Description: as §1, §2, §3

pigweed (AMARE) = assay: Greenhouse postemergence trial, weed efficacy; type: in vivo, Amaranthis retroflexus
Description: as §1
as §2, with “Control plants were sprayed in the same manner with the solvent blank.” left out
as §3, with “Colby's equation was used to determine the herbicidal effects expected from the mixtures.” left out

Canada thistle (CIRAR) = assay: Greenhouse postemergence trial, weed efficacy; type: in vivo, Cirsium arvense
Description: as §1
as §2, with “Control plants were sprayed in the same manner with the solvent blank.” left out
as §3, with “Colby's equation was used to determine the herbicidal effects expected from the mixtures.” left out

[2] = cloquintocet-mexyl 4.375 g ai/ha
[3] = cloquintocet-mexyl 8.75 g ai/ha
[4] = cloquintocet-mexyl 17.5 g ai/ha

CCCCCC(C)OC(=O)COc1ccc(Cl)c2cccnc12 (centres unmarked) [Cloquintocet-mexyl, cloquintocet-mexyl]
0%: % visual injury TRZAS Ob (spring wheat (TRZAS); [2]) | % visual injury TRZAS Ob (spring wheat (TRZAS); [3]) | % visual injury TRZAS Ob (spring wheat (TRZAS); [4]) | % visual injury TRZAS Ob (spring wheat (TRZAS); cloquintocet-mexyl 35 g ai/ha) | % visual injury TRZAS Ob (spring wheat (TRZAS); cloquintocet-mexyl 70 g ai/ha) | % visual injury TRZAW Ob (winter wheat (TRZAW); cloquintocet-mexyl 20 g ai/ha) | % visual injury TRZAW Ob (winter wheat (TRZAW); cloquintocet-mexyl 40 g ai/ha) | % visual injury TRZAW Ob (winter wheat (TRZAW); cloquintocet-mexyl 80 g ai/ha) | % visual injury HORVS Ob (spring barley (HORVS); [2]) | % visual injury HORVS Ob (spring barley (HORVS); [3]) | % visual injury HORVS Ob (spring barley (HORVS); [4]) | % visual injury HORVS Ob (spring barley (HORVS); cloquintocet-mexyl 20 g ai/ha) | % visual injury HORVS Ob (spring barley (HORVS); cloquintocet-mexyl 35 g ai/ha) | % visual injury HORVS Ob (spring barley (HORVS); cloquintocet-mexyl 40 g ai/ha) | % visual injury HORVS Ob (spring barley (HORVS); cloquintocet-mexyl 70 g ai/ha) | % visual injury HORVS Ob (spring barley (HORVS); cloquintocet-mexyl 80 g ai/ha) | % visual injury POLCO Ob (wild buckwheat (POLCO); [2]) | % visual injury POLCO Ob (wild buckwheat (POLCO); [3]) | % visual injury POLCO Ob (wild buckwheat (POLCO); [4]) | % visual injury POLCO Ob (wild buckwheat (POLCO); cloquintocet-mexyl 35 g ai/ha) | % visual injury POLCO Ob (wild buckwheat (POLCO); cloquintocet-mexyl 70 g ai/ha) | % visual injury KCHSC Ob (kochia (KCHSC); [2]) | % visual injury KCHSC Ob (kochia (KCHSC); [3]) | % visual injury KCHSC Ob (kochia (KCHSC); [4]) | % visual injury KCHSC Ob (kochia (KCHSC); cloquintocet-mexyl 20 g ai/ha) | % visual injury KCHSC Ob (kochia (KCHSC); cloquintocet-mexyl 35 g ai/ha) | % visual injury KCHSC Ob (kochia (KCHSC); cloquintocet-mexyl 40 g ai/ha) | % visual injury KCHSC Ob (kochia (KCHSC); cloquintocet-mexyl 70 g ai/ha) | % visual injury KCHSC Ob (kochia (KCHSC); cloquintocet-mexyl 80 g ai/ha) | % visual injury SASKR Ob (Russian thistle (SASKR); [2]) | % visual injury SASKR Ob (Russian thistle (SASKR); [3]) | % visual injury SASKR Ob (Russian thistle (SASKR); [4]) | % visual injury SASKR Ob (Russian thistle (SASKR); cloquintocet-mexyl 35 g ai/ha) | % visual injury SASKR Ob (Russian thistle (SASKR); cloquintocet-mexyl 70 g ai/ha) | % visual injury VIOTR Ob (wild pansy (VIOTR); [2]) | % visual injury VIOTR Ob (wild pansy (VIOTR); [3]) | % visual injury VIOTR Ob (wild pansy (VIOTR); [4]) | % visual injury VIOTR Ob (wild pansy (VIOTR); cloquintocet-mexyl 20 g ai/ha) | % visual injury VIOTR Ob (wild pansy (VIOTR); cloquintocet-mexyl 35 g ai/ha) | % visual injury VIOTR Ob (wild pansy (VIOTR); cloquintocet-mexyl 40 g ai/ha) | % visual injury VIOTR Ob (wild pansy (VIOTR); cloquintocet-mexyl 70 g ai/ha) | % visual injury VIOTR Ob (wild pansy (VIOTR); cloquintocet-mexyl 80 g ai/ha) | % visual injury VERPE Ob [1, 2] | % visual injury VERPE Ob [1, 3] | % visual injury VERPE Ob [1, 4] | % visual injury VERPE Ob ([1]; cloquintocet-mexyl 35 g ai/ha) | % visual injury VERPE Ob ([1]; cloquintocet-mexyl 70 g ai/ha) | % visual injury SINAR Ob (wild mustard (SINAR); cloquintocet-mexyl 20 g ai/ha) | % visual injury SINAR Ob (wild mustard (SINAR); cloquintocet-mexyl 40 g ai/ha) | % visual injury SINAR Ob (wild mustard (SINAR); cloquintocet-mexyl 80 g ai/ha) | % visual injury MATCH Ob (wild chamomile (MATCH); cloquintocet-mexyl 20 g ai/ha) | % visual injury MATCH Ob (wild chamomile (MATCH); cloquintocet-mexyl 40 g ai/ha) | % visual injury MATCH Ob (wild chamomile (MATCH); cloquintocet-mexyl 80 g ai/ha) | % visual injury CAPBP Ob (shepherd's purse (CAPBP); cloquintocet-mexyl 20 g ai/ha) | % visual injury CAPBP Ob (shepherd's purse (CAPBP); cloquintocet-mexyl 40 g ai/ha) | % visual injury CAPBP Ob (shepherd's purse (CAPBP); cloquintocet-mexyl 80 g ai/ha) | % visual injury CHEAL Ob (lambsquarters (CHEAL); cloquintocet-mexyl 20 g ai/ha) | % visual injury CHEAL Ob (lambsquarters (CHEAL); cloquintocet-mexyl 40 g ai/ha) | % visual injury CHEAL Ob (lambsquarters (CHEAL); cloquintocet-mexyl 80 g ai/ha) | % visual injury AMARE Ob (pigweed (AMARE); cloquintocet-mexyl 20 g ai/ha) | % visual injury AMARE Ob (pigweed (AMARE); cloquintocet-mexyl 40 g ai/ha) | % visual injury AMARE Ob (pigweed (AMARE); cloquintocet-mexyl 80 g ai/ha) | % visual injury CIRAR Ob (Canada thistle (CIRAR); cloquintocet-mexyl 20 g ai/ha) | % visual injury CIRAR Ob (Canada thistle (CIRAR); cloquintocet-mexyl 40 g ai/ha) | % visual injury CIRAR Ob (Canada thistle (CIRAR); cloquintocet-mexyl 80 g ai/ha)
